Data: PMC8668966, “Short-chain aurachin D derivatives are selective inhibitors of E. coli cytochrome bd-I and bd-II oxidases” (Scientific Reports, 2021)
Values after ≈ are worked out from the molar mass of the structure shown.

molecular target: T1, cytochrome bd-II (Escherichia coli, UniProt P26459); assay: Oxygen reductase activity assay (Clark-type electrode) with purified cytochrome bd-II; type: biochemical, E. coli; settings: compound 250 µM, 200 µM ubiquinone-1, 5 mM dithiothreitol, 120 nM enzyme, RT, 100% = DMSO; mean ± S.E.M. (n=3); read-out: Rest activity in % of control activity bd-II
T1 construct: made in house; host or cells: E. coli C43 (DE3) Δ bo3 (CLY)
Description: (§1) To determine inhibition of our test set compounds and to assess the selectivity for bd-type oxidases we tested the inhibitory effect via […] determination of oxygen reduction using purified protein samples and ubiquinol-1 as electron donor. In this set-up, we kept the compound at a high molar excess compared to the protein. Figures 3 and 4 illustrate the screening results for cytochromes bd-I, bd-II and bo3, respectively. A comparative overview of all compounds is given in SI Table S1. […]. […] Among these compounds, AC2-11 has the strongest inhibitory effect on all three oxidases. […]. For AurC and its analogues it was reported that replacement of N–OH with an N–H group decreases the inhibitory potential only for cytochrome bo3, keeping a strong inhibitory effect on cytochrome bd[17]. Correspondingly, we observed a clear inhibition of cytochromes bd-I and bd-II with all AurD-type compounds. Regarding the long-chain derivatives AC4-11, AC2-11 and AD3-11, inhibition of cytochromes bd-I and bd-II and bo3 highlight the importance of the residue at the nitrogen group at position 1 for enzyme selectivity. […]. […] Regarding the cyclic derivatives, 7-MTHA causes only a minor inhibition of cytochrome bd-I. This effect could be due to the methoxy group in position 7 that introduces an additional polarity to the molecule. Steric hindrance as a consequence of the third ring structure is less likely, because AD5-cyclo is bulkier and reduces activity < 10% of cytochromes bd-I and bd-II.
(§2) Oxygen reductase activity was measured as oxygen consumption rate of purified protein by OX-MR Clark-type oxygen electrode linked to a PA 2000 picoammeter and to the ADC-216 AD-converter. Data recording with SensorTrace Basic 2.1 software (all Unisense, Denmark). Measurements were performed at RT in stirred 2 ml—glass vials with a total reaction volume of 600 µl. Oxygen consumption was initiated by adding 30 nM (bd-I, bo3) or 120 nM (bd-II) of the respective enzyme to the equilibrated mixture containing 20 mM NaPi (pH 8.0), 50 mM NaCl, 0.02% DDM, 5 mM Dithiothreitol (DTT) and 200 µM Ubiquinone-1 (2,3-Dimethoxy-5-methyl-6-(3-methyl-2-buten-1-yl)-1,4-benzoquinone). A 10 min equilibration period was implemented prior to enzyme addition. Inhibition experiments were performed with 250 µM of the respective compound from 20 mM stock solution in DMSO before equilibration. Data analysis and visualization via Origin Lab Pro 9.5 (Additive GmbH, Germany) Data analysis included an unpaired, two-sided t-test of two samples to check that given residual activities were sufficiently different between proteins (at significance levels p < 0.05, 0.01 or 0.001). HQNO (2-heptyl-4-quinolinol 1-oxide) was purchased from biomol GmbH, Hamburg. […]. The Ki^app value was adopted as the EC50 from the sigmoidal DoseRespFit. Further information can be found in Supporting Information Figures S2 to S5.

T1 sequence (P26459 whole entry): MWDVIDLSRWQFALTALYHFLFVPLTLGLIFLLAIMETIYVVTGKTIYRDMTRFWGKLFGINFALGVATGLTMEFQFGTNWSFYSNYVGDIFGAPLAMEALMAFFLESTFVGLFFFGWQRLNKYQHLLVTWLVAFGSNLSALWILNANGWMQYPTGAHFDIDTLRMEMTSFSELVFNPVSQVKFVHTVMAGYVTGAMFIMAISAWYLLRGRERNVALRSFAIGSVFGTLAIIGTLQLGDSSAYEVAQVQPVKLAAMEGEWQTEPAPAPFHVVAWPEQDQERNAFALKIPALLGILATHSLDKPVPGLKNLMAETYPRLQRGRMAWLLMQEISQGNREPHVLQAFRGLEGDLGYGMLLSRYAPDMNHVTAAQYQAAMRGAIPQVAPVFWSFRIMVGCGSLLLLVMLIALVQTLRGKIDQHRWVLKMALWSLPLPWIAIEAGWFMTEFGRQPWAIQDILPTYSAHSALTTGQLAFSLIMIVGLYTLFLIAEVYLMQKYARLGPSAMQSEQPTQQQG
T1 sequence (P24244 whole entry, further chain): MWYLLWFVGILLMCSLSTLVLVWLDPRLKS
T1 sequence (P26458 whole entry, further chain): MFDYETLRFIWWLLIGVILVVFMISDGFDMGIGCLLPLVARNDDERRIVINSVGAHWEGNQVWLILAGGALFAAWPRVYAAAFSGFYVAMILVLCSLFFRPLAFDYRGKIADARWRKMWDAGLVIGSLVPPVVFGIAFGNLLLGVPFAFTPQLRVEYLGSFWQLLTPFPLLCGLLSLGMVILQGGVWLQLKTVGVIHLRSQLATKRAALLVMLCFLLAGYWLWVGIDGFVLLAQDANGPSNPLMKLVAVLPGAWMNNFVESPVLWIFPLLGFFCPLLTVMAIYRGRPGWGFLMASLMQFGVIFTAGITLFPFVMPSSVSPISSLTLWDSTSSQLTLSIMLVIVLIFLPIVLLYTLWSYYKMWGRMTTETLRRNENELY

In order of rising remaining activity at 250 µM:
1. CCCCCCc1c(C)[nH]c2ccccc2c1=O [AD6-1]  1.3 ± 0.17%
2. CCCCc1c(C)[nH]c2ccccc2c1=O [AD4-1]  1.33 ± 0.26%
3. CCCCCCCCc1c(C)[nH]c2ccccc2c1=O [AD8-1]  1.36 ± 0.21%
4. CCCCCCCc1c(CC)[nH]c2ccccc2c1=O [AD7-2]  1.4 ± 0.49%
5. CCCCCCCCCCCc1[nH]c2ccccc2c(=O)c1CCC [AD3-11]  1.45 ± 0.18%
6. CCCCCc1c(C)[nH]c2ccccc2c1=O [AD5-1]  1.85 ± 0.18%
7. Cc1cc(O)c2ccccc2n1 [Compound 2-MQ, 2-methyl-4-quinolinol, reference compound]  17.8 ± 0.55%

system: B. subtilis; assay: not given; set-up: method as in PMID 3106289; settings: cited from earlier work

For CC(C)=CCC/C(C)=C/CC/C(C)=C/Cc1c(C)n(O)c2ccccc2c1=O [AurC, Aurachin C], the minimum inhibitory concentration is listed as 0.15 µg/mL (≈ 0.395 µM).

system: cytochrome bc1 complex (complex III) from beef heart mitochondria; assay: not given; set-up: method as in PMID 8206232; settings: isolated complex III; cited from earlier work

In the case of CCCCCCCCCCCc1cc(=O)c2ccccc2[nH]1 [AD11-0, 2-undecylquinolone], the pIC50 is given as 6.66.

molecular target: T2, cytochrome bo3 (Escherichia coli, UniProt P0ABI8); assay: Oxygen reductase activity assay (Clark-type electrode) with purified cytochrome bo3; type: biochemical, E. coli; settings: at 250 µM; read-out: inhibitory effect on cytochrome bo3
T2 construct: made in house; host or cells: E. coli strain GO195 with pIRHisA
Description: as §1, §2

T2 sequence (P0ABJ3 whole entry): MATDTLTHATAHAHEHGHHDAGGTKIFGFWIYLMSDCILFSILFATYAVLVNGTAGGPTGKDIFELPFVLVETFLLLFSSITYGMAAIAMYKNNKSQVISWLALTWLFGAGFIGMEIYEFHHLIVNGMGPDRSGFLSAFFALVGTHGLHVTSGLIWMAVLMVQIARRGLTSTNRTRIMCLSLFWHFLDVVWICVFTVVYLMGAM
T2 sequence (P0ABJ1 25-315, further chain): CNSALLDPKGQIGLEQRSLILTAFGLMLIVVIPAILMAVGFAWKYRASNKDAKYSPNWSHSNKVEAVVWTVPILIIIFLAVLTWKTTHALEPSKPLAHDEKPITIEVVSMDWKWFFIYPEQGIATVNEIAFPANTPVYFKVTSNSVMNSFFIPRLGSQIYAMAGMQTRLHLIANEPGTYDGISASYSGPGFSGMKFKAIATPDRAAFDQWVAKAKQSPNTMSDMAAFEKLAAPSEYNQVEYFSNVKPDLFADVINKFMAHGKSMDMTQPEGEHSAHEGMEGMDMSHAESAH
T2 sequence (P0ABJ6 whole entry, further chain): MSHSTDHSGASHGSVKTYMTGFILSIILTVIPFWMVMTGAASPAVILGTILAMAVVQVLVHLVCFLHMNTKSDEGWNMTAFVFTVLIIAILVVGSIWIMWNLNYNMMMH
T2 sequence (P0ABI8 whole entry): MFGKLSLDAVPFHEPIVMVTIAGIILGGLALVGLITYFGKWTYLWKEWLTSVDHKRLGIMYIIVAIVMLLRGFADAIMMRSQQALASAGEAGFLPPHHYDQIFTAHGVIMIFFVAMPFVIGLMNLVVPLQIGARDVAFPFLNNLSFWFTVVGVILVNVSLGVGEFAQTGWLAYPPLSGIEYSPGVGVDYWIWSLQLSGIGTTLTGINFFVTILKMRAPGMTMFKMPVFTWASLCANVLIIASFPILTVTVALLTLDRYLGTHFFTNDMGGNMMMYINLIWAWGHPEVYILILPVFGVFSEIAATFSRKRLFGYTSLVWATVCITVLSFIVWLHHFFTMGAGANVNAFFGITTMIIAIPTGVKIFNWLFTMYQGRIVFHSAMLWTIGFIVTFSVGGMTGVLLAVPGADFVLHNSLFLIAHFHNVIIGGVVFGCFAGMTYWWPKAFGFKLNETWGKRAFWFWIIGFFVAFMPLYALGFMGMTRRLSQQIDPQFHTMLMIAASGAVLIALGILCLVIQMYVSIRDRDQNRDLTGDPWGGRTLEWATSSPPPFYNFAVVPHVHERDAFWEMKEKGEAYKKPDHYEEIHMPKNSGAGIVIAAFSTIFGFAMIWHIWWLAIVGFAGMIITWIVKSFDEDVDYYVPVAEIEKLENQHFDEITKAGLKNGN

Work on CCCCCCCCCCCc1[nH]c2ccccc2c(=O)c1CCC [AD3-11] yielded an inhibition at 250 µM of about 50%.

same assay, conditions: compound 250 µM, 200 µM ubiquinone-1, 5 mM dithiothreitol, 30 nM enzyme, RT, 100% = DMSO; mean ± S.E.M. (n=3); read-out: Rest activity in % of control activity bo3

In order of falling remaining activity at 250 µM:
1. CCCCCCCCc1c(C)[nH]c2ccccc2c1=O [AD8-1]  94.6 ± 3.6%
2. CCCCCCc1c(C)[nH]c2ccccc2c1=O [AD6-1]  73.2 ± 1.7%
3. CCCCCc1c(C)[nH]c2ccccc2c1=O [AD5-1]  70.4 ± 1.5%
4. CCCCc1c(C)[nH]c2ccccc2c1=O [AD4-1]  69.7 ± 4.3%
5. Cc1cc(O)c2ccccc2n1 [Compound 2-MQ, 2-methyl-4-quinolinol, reference compound]  64.2 ± 2.6%
6. CCCCCCCCCCCc1[nH]c2ccccc2c(=O)c1CCC [AD3-11]  47.1 ± 7%
7. CCCCCCCc1c(CC)[nH]c2ccccc2c1=O [AD7-2]  33.3 ± 1.4%

same assay, conditions: final enzyme concentration 30 nM; EC50 of DoseResp fit; read-out: Ki^app bo3

In the case of CCCCCCCCCCCc1[nH]c2ccccc2c(=O)c1CCC [AD3-11], the Ki is reported as over 100 µM.

molecular target: T3, cytochrome bd-I (Escherichia coli, UniProt P0ABJ9); assay: Oxygen reductase activity assay (Clark-type electrode) with purified cytochrome bd-I; type: biochemical, E. coli; settings: compound 250 µM, 200 µM ubiquinone-1, 5 mM dithiothreitol, 30 nM enzyme, RT, 100% = DMSO; mean ± S.E.M. (n=3); read-out: Rest activity in % of control activity bd-I
T3 construct: made in house; host or cells: E. coli C43 (DE3) Δ bo3 (CLY)
Description: as §1, §2
Dose response curves were created to rank the compounds due to their inhibition potency. Inhibitors were titrated in presence of 30nM bd-I. From Clark-type electrode monitored oxygen consumption, resulting oxygen reduction activity with 200µM Q1, reduced with 2mM DTT, was calculated as turnover in e^-/s. Turnover values were normalized, followed by a curve fitting with DoseResp Fit (1) in Origin LabPro9.5 (Additive GmbH, Germany). Data points are mean of minimum three independent measurements ± S.E.M.

T3 sequence (P0ABJ9 whole entry): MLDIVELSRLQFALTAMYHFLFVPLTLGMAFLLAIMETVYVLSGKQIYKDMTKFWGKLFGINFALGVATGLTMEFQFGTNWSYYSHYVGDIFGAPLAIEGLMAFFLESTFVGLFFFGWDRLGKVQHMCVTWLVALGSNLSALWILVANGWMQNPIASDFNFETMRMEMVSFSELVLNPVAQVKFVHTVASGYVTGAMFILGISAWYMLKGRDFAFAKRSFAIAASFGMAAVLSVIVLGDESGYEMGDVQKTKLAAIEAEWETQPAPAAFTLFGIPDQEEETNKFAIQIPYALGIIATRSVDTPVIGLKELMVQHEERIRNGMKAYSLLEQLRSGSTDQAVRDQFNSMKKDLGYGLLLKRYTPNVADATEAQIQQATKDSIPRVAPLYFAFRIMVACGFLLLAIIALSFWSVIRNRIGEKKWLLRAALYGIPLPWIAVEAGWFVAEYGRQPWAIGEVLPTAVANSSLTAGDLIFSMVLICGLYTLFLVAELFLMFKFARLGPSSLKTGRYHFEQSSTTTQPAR
T3 sequence (P0ABK2 whole entry, further chain): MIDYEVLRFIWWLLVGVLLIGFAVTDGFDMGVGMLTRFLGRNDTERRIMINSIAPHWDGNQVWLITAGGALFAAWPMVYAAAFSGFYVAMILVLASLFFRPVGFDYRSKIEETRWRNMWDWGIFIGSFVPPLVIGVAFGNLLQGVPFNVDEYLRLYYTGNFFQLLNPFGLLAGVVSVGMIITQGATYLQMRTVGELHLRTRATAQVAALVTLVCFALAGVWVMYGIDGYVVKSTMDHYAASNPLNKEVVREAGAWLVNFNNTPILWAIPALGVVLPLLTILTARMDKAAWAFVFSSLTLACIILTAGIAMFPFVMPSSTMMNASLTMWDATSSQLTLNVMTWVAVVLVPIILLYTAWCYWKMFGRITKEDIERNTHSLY
T3 sequence (P56100 whole entry, further chain): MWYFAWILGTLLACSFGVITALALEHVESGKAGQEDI

Going from CCCCc1c(C)[nH]c2ccccc2c1=O [AD4-1] to CCCCCc1c(C)[nH]c2ccccc2c1=O [AD5-1], the remaining activity at 250 µM falls from 5.8 ± 0.39% to 4 ± 0.13%.

CCCCCCCc1c(CC)[nH]c2ccccc2c1=O [AD7-2] and CCCCCCCCc1c(C)[nH]c2ccccc2c1=O [AD8-1] are within error of each other in remaining activity at 250 µM: 1.89 ± 1.8% for the first, 3.59 ± 0.11% for the second.

Going from CCCCCCc1c(C)[nH]c2ccccc2c1=O [AD6-1] to CCCCCCCCCCCc1[nH]c2ccccc2c(=O)c1CCC [AD3-11], the remaining activity at 250 µM falls from 3.45 ± 0.19% to 0.453 ± 0.28%.

With Cc1cc(O)c2ccccc2n1 [Compound 2-MQ, 2-methyl-4-quinolinol, reference compound] the remaining activity at 250 µM was over 30%.

same assay, conditions: cytochrome bd-I

With CCCCCCCc1c(CC)[nH]c2ccccc2c1=O [AD7-2] the “Ki^app fold lower compared to AD4-1” value was 45 fold.

For CCCCCCCCc1c(C)[nH]c2ccccc2c1=O [AD8-1], the “increase of Ki^app value compared to AD7-2” value was “sixfold”.

In the case of CCCCCCCCCCCc1[nH]c2ccccc2c(=O)c1CCC [AD3-11], the “fold higher inhibitory potential compared to AD0-11” value is reported as 188 fold.

same assay, conditions: selectivity bd-I over bo3

In the case of CCCCCCCCCCCc1[nH]c2ccccc2c(=O)c1CCC [AD3-11], the “ratio Ki^app-bo3 vs. Ki^app-bd-I” value is reported as “around 300”.
